Data as given in patent US20130191098A1, “METHODS AND SYSTEMS FOR SIMULATIONS OF COMPLEX BIOLOGICAL NETWORKS USING GENE EXPRESSION INDEXING IN COMPUTATIONAL MODELS” (BOARD OF REGENTS OF THE UNIVERSITY OF TEXAS SYSTEM, priority 2010, published 2013).
Where two headings read alike, the source gives them in different places.

Columns and labels:
skeletal muscle = assay: Human clinical trial with statins: skeletal muscle cholesterol and ubiquinone (Paiva et al.); format: in vivo
liver cell = tested on: liver cell; parameters: unit not given here; details: cited from earlier work

| Structure (SMILES) | Ubiquinone, Percent from placebo (skeletal muscle; drop) [% drop] | Cholesterol, Percent from placebo (skeletal muscle; rise) [% rise] | Cholesterol (liver cell; DOSE 0.01) | Cholesterol (liver cell; DOSE 3) | Cholesterol (liver cell; DOSE 10) | Cholesterol (liver cell; DOSE 20) |
| --- | --- | --- | --- | --- | --- | --- |
| CCC(C)(C)C(=O)O[C@H]1C[C@@H](C)C=C2C=C[C@H](C)[C@H](CC[C@@H]3C[C@@H](O)CC(=O)O3)[C@H]21 [simvastatin] | 134 | 139 | – | – | – | – |
| CC(C)c1c(C(=O)Nc2ccccc2)c(-c2ccccc2)c(-c2ccc(F)cc2)n1CC[C@@H](O)C[C@@H](O)CC(=O)O [atorvastatin] | – | – | 15.52 | 14.27 | 13.71 | 13.66 |
